According to patent US20240269212A1, “HEMP EXTRACT FOR TREATMENT OF PAIN, CANCER AND EPILEPSY IN ANIMALS” (Portland Technology Holdings LLC., priority 2021, published 2024):

What was measured:
[1] = Physical and behavioral examinations for adverse events; assay type: in vivo; conditions: healthy dogs, oral 2 mg/kg twice daily for 2 weeks
Description: All dogs underwent the fasted treatment trial for a two-week period and were then allowed 2 weeks of washout before beginning the fed stage of the trial which included ¼ of a 13 ounce can of a wet food (PURINA® Pro Plan Savory Chicken and Rice Formula, Nestle Purina, St. Louis, MO) at the time of dosing. […] Prior to the study all dogs had blood drawn for a complete blood count and serum chemistry and again at the end of each phase of the 2 week study. Complete blood counts (white blood cells [WBC], hematocrit, hemoglobin, red blood cells [RBC], neutrophils, lymphocytes, platelets, monocytes, eosinophils, basophils) and serum biochemistry analyses (sodium, potassium, chloride, magnesium, calcium, phosphorus, albumin, total protein, globulin, urea nitrogen, creatinine, alkaline phosphatase [ALP], alanine aminotransferase [ALT], aspartate amino transferase [AST], cholesterol, total bilirubin, glucose and gamma glutamyl transferase [GGT]) were performed at the Cornell University Diagnostic Laboratory. […] Due to the potential for CBG/CBGA to affect heart rate, dogs were assessed manually for resting heart rates for 30 seconds and extrapolated to relative beats per minute after initial dosing at time points 0, 1, 2, 4, 12, 24 and 48 hours and again at day 7 and day 14 after morning dosing for both the fed and fasted arms of the study.

[2] = Serum cannabinoid concentrations after 1 and 2 weeks of twice daily dosing (relative steady state); assay type: in vivo, dog (beagle); conditions: for concentration at 6 h: male, beagle, dog, 2 mg/kg, 2 mg/kg twice daily, six hours after the morning dose
Description: Six intact male beagles all 2 years of age weighing between 18.6 and 22.2 kilograms body weight were housed at the Baker Institute for Animal Health and all procedures were approved by the Cornell University Institutional Animal Care and Use Committee (Protocol 2019-0001). All dogs underwent the fasted treatment trial for a two-week period and were then allowed 2 weeks of washout before beginning the fed stage of the trial which included ¼ of a 13 ounce can of a wet food (PURINA® Pro Plan Savory Chicken and Rice Formula, Nestle Purina, St. Louis, MO) at the time of dosing. Twenty-four hour pharmacokinetic analysis of serum cannabinoid levels was performed on day 1 after a single dose in the fed or fasted state. Then, twice daily dosing of treatment oil at both 7 am and 7 pm was performed on the following days for two weeks, and serum cannabinoids were measured. Prior to the study all dogs had blood drawn for a complete blood count and serum chemistry and again at the end of each phase of the 2 week study. Complete blood counts (white blood cells [WBC], hematocrit, hemoglobin, red blood cells [RBC], neutrophils, lymphocytes, platelets, monocytes, eosinophils, basophils) and serum biochemistry analyses (sodium, potassium, chloride, magnesium, calcium, phosphorus, albumin, total protein, globulin, urea nitrogen, creatinine, alkaline phosphatase [ALP], alanine aminotransferase [ALT], aspartate amino transferase [AST], cholesterol, total bilirubin, glucose and gamma glutamyl transferase [GGT]) were performed at the Cornell University Diagnostic Laboratory. For the fasted and fed portions of the 24 hour pharmacokinetic analysis study the dogs were administered 2 mg/kg body weight of an equal mix of 30 mg/mL CBG and 30 mg/mL CBGA from a hemp extract in a sesame oil base which was tested again at the end of the study showing virtually the same analytical profile. Two milliliters of blood was drawn via jugular venipuncture for all 6 dogs prior to the initial dose (0 hours) and then again at 0.5, 1, 2, 4, 8, 12 and 24 hours. Prior to enrollment all dogs involved in the study were deemed healthy based on physical examination. Behavioral observations were performed 2 hours after morning dosing for each phase of the trial. Behavioral observations were performed on day 1, day 3, day 7, and day 14. Physical and behavioral examinations were performed to assess for adverse events including diarrhea, vomiting, lethargy, somnolence, ataxia, or abnormal behavior within the colony. Due to the potential for CBG/CBGA to affect heart rate, dogs were assessed manually for resting heart rates for 30 seconds and extrapolated to relative beats per minute after initial dosing at time points 0, 1, 2, 4, 12, 24 and 48 hours and again at day 7 and day 14 after morning dosing for both the fed and fasted arms of the study. Serum was also obtained on day 7 and day 14 six hours after the morning dose for further serum cannabinoid measurement to establish relative steady state serum concentrations.
Analysis was performed using an exploratory (fit-for-purpose) method for fast measurement of thirteen cannabinoids and their metabolites at the Toxicology Research Laboratory, University of Illinois at Chicago. The reference standards for CBD and CBDA were obtained from Restek Corporation (Bellefonte, PA); all other reference and internal standards including CBG and CBGA were obtained from Cerilliant Corporation (Round Rock, TX). The concentrations of cannabinoids (CBD, CBDA, 7-COOH Cannabidiol (7-COOH-CBD), THC, THCA, cannabinol (CBN), cannabichromene (CBC), CBG, and CBGA) and their metabolites (7-OH-CBD, 7-COOH-CBD, COOH-THC, and COOH-THC-Glu) in dog sera were determined using high performance liquid chromatography with tandem mass spectrometry (LC-MS/MS) (Nexera X2 and LCMS 8050, Shimadzu Corp., Kyoto, Japan). […]

[3] = Manual resting heart rate monitoring; assay type: in vivo, dog (beagle); conditions: initial dosing and two-week period of treatment
Description: Six intact male beagles all 2 years of age weighing between 18.6 and 22.2 kilograms body weight were housed at the Baker Institute for Animal Health and all procedures were approved by the Cornell University Institutional Animal Care and Use Committee (Protocol 2019-0001). All dogs underwent the fasted treatment trial for a two-week period and were then allowed 2 weeks of washout before beginning the fed stage of the trial which included ¼ of a 13 ounce can of a wet food (PURINA® Pro Plan Savory Chicken and Rice Formula, Nestle Purina, St. Louis, MO) at the time of dosing. Twenty-four hour pharmacokinetic analysis of serum cannabinoid levels was performed on day 1 after a single dose in the fed or fasted state. Then, twice daily dosing of treatment oil at both 7 am and 7 pm was performed on the following days for two weeks, and serum cannabinoids were measured. Prior to the study all dogs had blood drawn for a complete blood count and serum chemistry and again at the end of each phase of the 2 week study. […] Due to the potential for CBG/CBGA to affect heart rate, dogs were assessed manually for resting heart rates for 30 seconds and extrapolated to relative beats per minute after initial dosing at time points 0, 1, 2, 4, 12, 24 and 48 hours and again at day 7 and day 14 after morning dosing for both the fed and fasted arms of the study. […]

SMILES | Short-term safety (serum biochemistry, blood count, physical exam and heart rate monitoring) [1] | concentration at 6 h ([2]; serum, oral, week one, fasted) [ng/mL] | concentration at 6 h ([2]; serum, oral, week one, fed) [ng/mL] | concentration at 6 h ([2]; serum, oral, week two, fasted) [ng/mL] | concentration at 6 h ([2]; serum, oral, week two, fed) [ng/mL] | Bradycardia upon oral absorption [3] | concentration at 6 h ([2]; in vivo, week one, fasted) [ng/mL] | concentration at 6 h ([2]; in vivo, week one, fed) [ng/mL] | concentration at 6 h ([2]; in vivo, week two, fasted) [ng/mL] | concentration at 6 h ([2]; in vivo, week two, fed) [ng/mL] | absorption and retention, fold higher than what can be achieved with CBG ([2]; oral dosing over a 2-week period) [fold]
CCCCCc1cc(O)c(C/C=C(\C)CCC=C(C)C)c(O)c1 [CBG, cannabigerol] | appear to be safe | 5 ± 3.5 | 12.7 ± 12.3 | 6.1 ± 6 | 9.6 ± 8.4 |  |  |  |  |  | 
CCCCCc1cc(O)c(C/C=C(\C)CCC=C(C)C)c(O)c1C(=O)O [CBGA, cannabigerolic acid] | appear to be safe |  |  |  |  | does not induce bradycardia | 437 ± 414 | 564 ± 574 | 260 ± 300 | 223 ± 197 | ~10
